Converted amounts (≈) assume the structure as drawn. The source made the active and inactive calls. No cut-off for these calls is given here. Residues, ends and D or L forms follow the SMILES beside them. *: point of attachment. Myristoyl = CCCCCCCCCCCCCC(=O)*; Lauroyl = CCCCCCCCCCCC(=O)*
Experiments:
Cell membrane [1] = assay: Induction of membrane disruption in Staphylococcus aureus ATCC 25923 assessed as PI-positive cells at 4 times MIC measured after 2 hrs by propidium iodide staining based flow cytometry relative to control
Staphylococcus aureus [2] = assay: Induction of nucleic acid leakage in Staphylococcus aureus ATCC 25923 at 4 times MIC; format: functional
Staphylococcus aureus [3] = assay: Ratio of MIC for antimicrobial activity against Staphylococcus aureus ATCC 25923 in presence of 5% serum to MIC for antimicrobial activity against Staphylococcus aureus ATCC 25923 in absence of serum; format: functional
Staphylococcus aureus [4] = assay: Antimicrobial activity against Staphylococcus aureus ATCC 25923 at 0.5 times MIC after 15 passages by broth microdilution method; format: functional, organism-based
[5] = Binding affinity to LTA (unknown origin) assessed as bacterial killing at 2 times MIC preincubated for 1 hr followed by Staphylococcus aureus ATCC 25923 addition and measured after 2 hrs by colony counting method; conditions: time 3.0 hrs
Staphylococcus aureus [6] = assay: Antimicrobial activity against Staphylococcus aureus ATCC 29213 after 18 hrs by broth microdilution method; format: functional
Staphylococcus aureus [7] = assay: Antimicrobial activity against ciprofloxacin-resistant Staphylococcus aureus ATCC 25923 at 0.5 times MIC after 15 passages by broth microdilution method; format: functional, organism-based
Staphylococcus aureus [8] = assay: Antibiofilm activity against Staphylococcus aureus ATCC 25923 preformed biofilm assessed as preformed biofilm thickness at 32 uM after 24 hrs using LIVE/LEAD (SYTO-9/PI) staining by confocal laser scanning microscopy based 3D image analysis (reference value: 56 micrometer); format: functional
[9] = test system: Staphylococcus epidermidis; assay: Antimicrobial activity against ciprofloxacin-resistant Staphylococcus epidermidis ATCC 12228 at 0.5 times MIC after 15 passages by broth microdilution method; format: functional, organism-based
Staphylococcus aureus [10] = assay: Potentiation of ciprofloxacin-induced antimicrobial activity against methicillin-resistant Staphylococcus aureus 75 assessed as change in ciprofloxacin MIC at 2 uM after 18 hrs by broth microdilution method relative to ciprofloxacin MIC; format: functional
Staphylococcus aureus [11] = assay: Antibiofilm activity against ciprofloxacin-resistant Staphylococcus aureus ATCC 25923 at 0.5 to 8 uM after 24 hrs in presence of ciprofloxacin by checkerboard assay; format: functional, organism-based; conditions: dose 0.5-8 µM
Staphylococcus aureus [12] = assay: Antimicrobial activity against Staphylococcus aureus ATCC 25923 after 18 hrs in presence of MgCl2 by broth microdilution method; format: functional
Staphylococcus aureus [13] = assay: Antibiofilm activity against Staphylococcus aureus ATCC 25923 assessed as reduction in biofilm thickness after 24 hrs using LIVE/LEAD (SYTO-9/PI) staining by confocal laser scanning microscopy based 3D image analysis; format: functional, organism-based; conditions: dose 4-8 µM
[14] = test system: Staphylococcus epidermidis; assay: Potentiation of ciprofloxacin-induced antimicrobial activity against Staphylococcus epidermidis ATCC 12228 at 0.5 times MIC after 15 passages by broth microdilution method; format: functional, organism-based
[15] = test system: Staphylococcus epidermidis; assay: Antimicrobial activity against Staphylococcus epidermidis ATCC 12228 at 0.5 times MIC after 15 passages by broth microdilution method; format: functional, organism-based
Staphylococcus aureus [16] = assay: Potentiation of ciprofloxacin-induced antimicrobial activity against ciprofloxacin-resistant Staphylococcus aureus ATCC 25923 at 1 uM after 18 hrs by broth microdilution method; format: functional, organism-based
[17] = test system: Staphylococcus epidermidis; assay: Antimicrobial activity against ciprofloxacin-resistant Staphylococcus epidermidis ATCC 12228 after 18 hrs in presence of polymyxin B by checkerboard assay; format: functional, organism-based
Staphylococcus aureus [18] = assay: Antimicrobial activity against methicillin-resistant Staphylococcus aureus 75 measured after 18 hrs in presence of polymyxin B by checkerboard assay; format: functional, organism-based
Staphylococcus aureus [19] = assay: Induction of reactive oxygen species generation in Staphylococcus aureus ATCC 25923 by […] dye based fluorescence assay; format: functional, organism-based
Staphylococcus aureus [20] = assay: Antimicrobial activity against ciprofloxacin-resistant Staphylococcus aureus ATCC 25923 at 0.5 to 8 uM measured after 18 hrs in presence of ciprofloxacin by checkerboard assay; format: functional, organism-based; conditions: dose 0.5-8 µM
Cell membrane [21] = assay: Induction of membrane disruption in Staphylococcus aureus ATCC 25923 assessed as increase in non-uniform cell debris level at 4 times MIC measured after 2 to 4 hrs by SEM analysis; format: subcellular; conditions: time 2-4 hrs
Cell membrane [22] = assay: Induction of membrane disruption in Staphylococcus aureus ATCC 25923 measured after 2 hrs by propidium iodide staining based confocal laser scanning microscopic analysis; format: subcellular
Cell membrane [23] = assay: Induction of membrane disruption in Staphylococcus aureus ATCC 25923 assessed as appearance of rough membrane at 2 to 4 times MIC measured after 2 to 4 hrs by SEM analysis; format: subcellular; conditions: time 2-4 hrs
Staphylococcus aureus [24] = assay: Antibiofilm activity against Staphylococcus aureus ATCC 25923 at 0.5 to 8 uM after 24 hrs in presence of ciprofloxacin by checkerboard assay; format: functional, organism-based; conditions: dose 0.5-8 µM
Staphylococcus aureus [25] = assay: Antimicrobial activity against methicillin-resistant Staphylococcus aureus 113 measured after 18 hrs in presence of polymyxin B by checkerboard assay; format: functional, organism-based
[26] = test system: Staphylococcus epidermidis; assay: Potentiation of ciprofloxacin-induced antimicrobial activity against ciprofloxacin-resistant Staphylococcus epidermidis ATCC 12228 assessed as ciprofloxacin MIC at 0.5 times MIC after 15 passages by broth microdilution method; format: functional
[27] = test system: Staphylococcus epidermidis; assay: Antimicrobial activity against Staphylococcus epidermidis ATCC 12228 after 18 hrs by broth microdilution method; format: functional
[28] = test system: Staphylococcus epidermidis; assay: Antimicrobial activity against ciprofloxacin-resistant Staphylococcus epidermidis ATCC 12228 at 0.5 to 8 uM measured after 18 hrs in presence of ciprofloxacin by checkerboard assay; format: functional, organism-based; conditions: dose 0.5-8 µM
[29] = test system: Staphylococcus epidermidis; assay: Potentiation of ciprofloxacin-induced antimicrobial activity against ciprofloxacin-resistant Staphylococcus epidermidis ATCC 12228 assessed as change in ciprofloxacin MIC at 2 uM after 18 hrs by broth microdilution method relative to ciprofloxacin MIC; format: functional
Staphylococcus aureus [30] = assay: Antimicrobial activity against Staphylococcus aureus ATCC 25923 after 18 hrs in presence of 10% serum by broth microdilution method; format: functional
Staphylococcus aureus [31] = assay: Antimicrobial activity against methicillin-resistant Staphylococcus aureus 113 after 18 hrs by broth microdilution method; format: functional
Staphylococcus aureus [32] = assay: Antibiofilm activity against Staphylococcus aureus ATCC 25923 assessed as biofilm thickness at 4 uM after 24 hrs using LIVE/LEAD (SYTO-9/PI) staining by confocal laser scanning microscopy based 3D image analysis (reference value: 55 micrometer); format: functional
Staphylococcus aureus [33] = assay: Potentiation of ciprofloxacin-induced antimicrobial activity against methicillin-resistant Staphylococcus aureus 75 assessed as change in ciprofloxacin MIC at 1 uM after 18 hrs by broth microdilution method relative to ciprofloxacin MIC; format: functional
Staphylococcus aureus [34] = assay: Antimicrobial activity against methicillin-resistant Staphylococcus aureus 75 after 18 hrs by broth microdilution method; format: functional
Staphylococcus aureus [35] = assay: Antimicrobial activity against Staphylococcus aureus ATCC 25923 after 18 hrs in presence of FeCl3 by broth microdilution method; format: functional
Cell membrane [36] = assay: Induction of membrane disruption in Staphylococcus aureus ATCC 25923 assessed as formation of dent at 2 to 4 times MIC measured after 2 to 4 hrs by SEM analysis; format: subcellular; conditions: time 2-4 hrs
Staphylococcus aureus [37] = assay: Antimicrobial activity against Staphylococcus aureus ATCC 25923 after 18 hrs in presence of CaCl2 by broth microdilution method; format: functional
Staphylococcus aureus [38] = assay: Antibiofilm activity against Staphylococcus aureus ATCC 25923 at 4 to 8 uM after 24 hrs by LIVE/DEAD (SYTO-9/PI) staining based confocal laser scanning microscopic analysis; format: functional, organism-based; conditions: dose 4-8 µM

## CCCCCCCCCCCC(=O)N[C@@H](CCCNC(=N)N)C(=O)N[C@@H](CCCNC(=N)N)C(=O)N[C@@H](Cc1c[nH]c2ccccc12)C(N)=O (Lauroyl-Arg-Arg-Trp-NH2)
Cell membrane [1]
  Activity: Active
Staphylococcus aureus [2]
  Activity: inactive
Staphylococcus aureus [3]
  Ratio: 8
Staphylococcus aureus [4]
  Activity: Active
[5]
  Activity: Active
Staphylococcus aureus [6]
  MIC: 4 µM (≈ 2.79 µg/mL)
Staphylococcus aureus [7]
  Activity: Active
Staphylococcus aureus [8]
  Activity: 30 um
[9]
  Activity: Active
Staphylococcus aureus [10]
  fold change (FC): 2
Staphylococcus aureus [11]
  Activity: Active
Staphylococcus aureus [12]
  MIC: 8 µM
Staphylococcus aureus [13]
  Activity: Dose-dependent effect
[14]
  Activity: Active
[15]
  Activity: Active
Staphylococcus aureus [16]
  Activity: inactive
[17]
  Activity: Active
Staphylococcus aureus [18]
  Activity: Active
Staphylococcus aureus [19]
  Activity: Active
Staphylococcus aureus [20]
  Activity: Active
Cell membrane [21]
  Activity: Active
Cell membrane [22]
  Activity: Dose-dependent effect
Cell membrane [23]
  Activity: Active
Staphylococcus aureus [24]
  Activity: inactive
Staphylococcus aureus [25]
  Activity: Active
[26]
  MIC: 8 µM
[27]
  MIC: 4 µM (≈ 2.79 µg/mL)
[28]
  Activity: Active
[29]
  fold change (FC): 2
Staphylococcus aureus [30]
  MIC: 64 µM
Staphylococcus aureus [31]
  MIC: 2 µM (≈ 1.4 µg/mL)
Staphylococcus aureus [32]
  Activity: 24 um
Staphylococcus aureus [33]
  fold change (FC): 2
Staphylococcus aureus [34]
  MIC: 4 µM (≈ 2.79 µg/mL)
Staphylococcus aureus [35]
  MIC: 4 µM
Cell membrane [36]
  Activity: Active
Staphylococcus aureus [37]
  MIC: 16 µM
Staphylococcus aureus [38]
  Activity: Active

## CCCCCCCCCCCCCC(=O)N[C@@H](CCCNC(=N)N)C(=O)N[C@@H](Cc1c[nH]c2ccccc12)C(=O)N[C@@H](Cc1c[nH]c2ccccc12)C(N)=O (Myristoyl-Arg-Trp-Trp-NH2)
Cell membrane [1]
  Activity: 88.9%
Staphylococcus aureus [2]
  Activity: inactive
Staphylococcus aureus [3]
  Ratio: 2
Staphylococcus aureus [4]
  Activity: Active
[5]
  Activity: Active
Staphylococcus aureus [6]
  MIC: 8 µM (≈ 6.05 µg/mL)
Staphylococcus aureus [7]
  Activity: Active
Staphylococcus aureus [8]
  Activity: 40 um
[9]
  Activity: Active
Staphylococcus aureus [10]
  fold change (FC): 2
Staphylococcus aureus [11]
  Activity: Active
Staphylococcus aureus [12]
  MIC: 4 µM
Staphylococcus aureus [13]
  Activity: Dose-dependent effect
[14]
  Activity: Active
[15]
  Activity: Active
Staphylococcus aureus [16]
  Activity: inactive
[17]
  Activity: Active
Staphylococcus aureus [18]
  Activity: Active
Staphylococcus aureus [19]
  Activity: Active
Staphylococcus aureus [20]
  Activity: Active
Cell membrane [21]
  Activity: Active
Cell membrane [22]
  Activity: Dose-dependent effect
Cell membrane [23]
  Activity: Active
Staphylococcus aureus [24]
  Activity: inactive
Staphylococcus aureus [25]
  Activity: Active
[26]
  MIC: 8 µM
[27]
  MIC: 16 µM (≈ 12.1 µg/mL)
[28]
  Activity: Active
[29]
  fold change (FC): 2
Staphylococcus aureus [30]
  MIC: 16 µM
Staphylococcus aureus [31]
  MIC: 4 µM (≈ 3.02 µg/mL)
Staphylococcus aureus [32]
  Activity: 30 um
Staphylococcus aureus [33]
  fold change (FC): 2
Staphylococcus aureus [34]
  MIC: 4 µM (≈ 3.02 µg/mL)
Staphylococcus aureus [35]
  MIC: 8 µM
Cell membrane [36]
  Activity: Active
Staphylococcus aureus [37]
  MIC: 8 µM
Staphylococcus aureus [38]
  Activity: Active

— ChEMBL document CHEMBL4706653, “Ultra-short lipopeptides against gram-positive bacteria while alleviating antimicrobial resistance” (Eur J Med Chem, 2021)
